One data set relates to human liver cytosol. Kind of data set: Incubation of F18 with human liver cytosol, metabolite profiling. The class given is in vitro ADME. Set-up: key: +: Metabolite detected; −: metabolite not detected. To be noted: F18 50 μM, 1 h. How it is done:
(§1) A stock solution of F18 (5 mM) was prepared in methanol. F18 (50 μM) was incubated with RLMs/DLMs/MLMs/HLMs and HLcy (0.5 mg protein/mL) in 50 mM Tris-HCl buffer containing 5 mM MgCl2 (pH 7.4) in a final volume of 200 μL. The final concentration of methanol in the incubation system was 1% (v/v). After 3 min of preincubation at 37°C, the reactions were initiated by the addition of NADPH-regenerating system (10-mM β-NADP, 100-mM 6-G-P and 10-U/mL 6-G-P-DH) or NADH. After incubation for 1 h, the reactions were terminated by the addition of two volumes of ice-cold acetonitrile. Samples without NADPH or NADH were included as controls. The incubation mixture was vortexed and centrifuged at 13,300 × g for 5 min. A 10 μL aliquot of the supernatant was injected into an LC-tandem mass spectrometer (LC-MS/MS) for analysis.
(§2) Metabolic profiling studies were performed with a Finnigan TSQ Quantum MS instrument with an electrospray ionization probe and a Finnigan SURVEYOR HPLC system (Thermo Finnigan, San Jose, CA, USA). HPLC was performed with a Zorbax SB-C18 column (2.1 × 100 mm, 3.5 μm, Agilent Corporation, CA, USA) with a column temperature of 35°C and a flow rate of 200 μL/min. F18 and its metabolites were eluted using a linear gradient method with a mobile phase consisting of solvent A (water with 0.1% formic acid) and solvent B (acetonitrile with 0.1% formic acid). […] The samples were analyzed in the positive-ionization mode, and the TSQ capillary temperature was set to 350°C. Nitrogen was used as both the sheath gas and the auxiliary gas and was delivered at 30 psi and 15 psi, respectively. The spray voltage and tube lens were set to 3,800 V and 123 V, respectively. The full-width half maximum (FWHM) was set to 0.7. MS data were acquired in the selective ion-recording mode or by collecting full scans from 200 to 600 m/z at 1 scan/s. The mass spectrometer and HPLC system were operated using Xcalibur 2.0.7 software.

The next data set has as its system monkey liver microsomes. Kind of data set: Incubation of F18 with monkey liver microsomes, metabolite profiling. Set-up: key: +: Metabolite detected; −: metabolite not detected. To be noted: F18 50 μM, 1 h. The class given is in vitro ADME. How it is done:
as §1, §2
(In general: Liver microsomes are a subcellular fraction often used to study metabolism.)

The test system of the next data set is rat liver microsomes. Kind of data set: Incubation of F18 with rat liver microsomes, metabolite profiling. The class given is in vitro ADME. Set-up: key: +: Metabolite detected; −: metabolite not detected. To be noted: F18 50 μM, 1 h. How it is done:
as §1, §2

The target in the next data set is T1, recombinant FMO5 (Homo sapiens, UniProt P49326).
T1 construct: purchased BD Gentest (Woburn, MA, USA)
T1 sequence (P49326 1-533): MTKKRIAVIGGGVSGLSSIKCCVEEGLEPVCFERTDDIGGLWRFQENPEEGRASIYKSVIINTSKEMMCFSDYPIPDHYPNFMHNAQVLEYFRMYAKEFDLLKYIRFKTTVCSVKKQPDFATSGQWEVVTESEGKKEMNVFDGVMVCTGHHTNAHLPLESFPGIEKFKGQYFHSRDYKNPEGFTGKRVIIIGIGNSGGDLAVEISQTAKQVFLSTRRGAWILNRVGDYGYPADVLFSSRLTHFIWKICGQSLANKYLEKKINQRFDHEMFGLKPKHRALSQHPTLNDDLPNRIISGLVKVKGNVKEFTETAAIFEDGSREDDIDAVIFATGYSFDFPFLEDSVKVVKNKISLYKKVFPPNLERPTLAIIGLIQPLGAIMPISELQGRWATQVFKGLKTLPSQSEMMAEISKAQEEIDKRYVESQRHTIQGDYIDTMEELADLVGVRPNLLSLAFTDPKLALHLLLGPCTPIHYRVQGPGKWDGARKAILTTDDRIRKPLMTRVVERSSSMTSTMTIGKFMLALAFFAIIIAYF
Kind of data set: Metabolism of F18 by cDNA-expressed FMO5. The class given is in vitro ADME. To be noted: F18 10 μM, 50 pmol/mL enzyme, 1 h. How it is done:
(§3) To further verify the roles of CYPs and FMOs in the metabolism of F18 in humans, F18 (10 μM) was incubated individually with 14 cDNA-expressed human CYP isozymes (50-pmol/mL CYP1A1, CYP1A2, CYP2A6, CYP2B6, CYP2C8, CYP2C9, CYP2C19, CYP2D6, CYP2E1, CYP2J2, CYP3A4, CYP4F2, CYP4F3, and CYP4A11) and three cDNA-expressed FMO enzymes (50-pmol/mL FMO1, FMO3, and FMO5). The incubation conditions were similar to those used for HLMs (described above), with the exception of the incubating time […]. Samples incubated without NADPH were used as the negative control.

The target in the next data set is T2, recombinant FMO3 (Homo sapiens, UniProt P31513).
T2 construct: purchased BD Gentest (Woburn, MA, USA)
T2 sequence (P31513 1-532): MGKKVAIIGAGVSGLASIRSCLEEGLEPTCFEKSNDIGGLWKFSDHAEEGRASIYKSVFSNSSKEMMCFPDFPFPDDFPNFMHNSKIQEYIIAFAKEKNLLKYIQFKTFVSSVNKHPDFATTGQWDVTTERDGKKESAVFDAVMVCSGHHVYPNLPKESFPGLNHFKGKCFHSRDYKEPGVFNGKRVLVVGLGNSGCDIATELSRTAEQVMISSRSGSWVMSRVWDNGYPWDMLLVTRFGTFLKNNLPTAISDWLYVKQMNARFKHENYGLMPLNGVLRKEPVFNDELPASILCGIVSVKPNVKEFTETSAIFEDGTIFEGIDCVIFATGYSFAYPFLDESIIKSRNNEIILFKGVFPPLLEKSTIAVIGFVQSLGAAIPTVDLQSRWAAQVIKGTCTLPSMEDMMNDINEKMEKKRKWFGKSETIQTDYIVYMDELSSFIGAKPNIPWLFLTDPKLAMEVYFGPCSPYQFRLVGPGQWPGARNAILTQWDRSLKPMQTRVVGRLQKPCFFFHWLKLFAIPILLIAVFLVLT
Kind of data set: Metabolism of F18 by cDNA-expressed FMO3. To be noted: F18 10 μM, 50 pmol/mL enzyme, 1 h. The class given is in vitro ADME. How it is done:
as §3

For another data set, the system named is dog liver microsomes. Kind of data set: Incubation of F18 with dog liver microsomes, metabolite profiling. The class given is in vitro ADME, beagle dog. Set-up: key: +: Metabolite detected; −: metabolite not detected. To be noted: F18 50 μM, 1 h. How it is done: as §1, §2

Molecules are shown by their SMILES.

In the case of `CCCc1cc(=O)oc2c3c(c4c(c12)OC(C)(C)C=C4)OC(CO)CC3=O` (stereo not drawn) [Metabolite M1], in the data set with human liver cytosol, the “F18 metabolite detected in HLcy with NADH” value is “−” and the “F18 metabolite detected in HLcy with NADPH” value is on record as “−”. Moreover, the “F18 metabolite detected in MLM” value with monkey liver microsomes is “+”. Moreover, the “F18 metabolite detected in RLM” value with rat liver microsomes is given as “+”. Moreover, the “Metabolite detected in incubation with recombinant FMO5” value at recombinant FMO5 was “not detected”. The “Metabolite detected in incubation with recombinant FMO3” value on recombinant FMO3 is on record as “not detected”. For the same compound, the “F18 metabolite detected in DLM” value with dog liver microsomes is “+”.
As to `CCCc1cc(=O)oc2c3c(c4c(c12)OC(C)(C)C=C4)O[C@H](CCl)C[C@H]3O` (relative stereo) [Metabolite M3-1, trans-12-hydroxy F18], in the data set with human liver cytosol, the “F18 metabolite detected in HLcy with NADH” value was “+” and the “F18 metabolite detected in HLcy with NADPH” value is listed as “+”. In addition, the “F18 metabolite detected in MLM” value in the data set with monkey liver microsomes is “+”. Further, the “F18 metabolite detected in RLM” value in the data set with rat liver microsomes is recorded as “+”. Moreover, the “Metabolite detected in incubation with recombinant FMO5” value on recombinant FMO5 is listed as “detected”. In addition, the “Metabolite detected in incubation with recombinant FMO3” value at recombinant FMO3 is “detected”. Also, the “F18 metabolite detected in DLM” value in the data set on dog liver microsomes is “+”.
In the case of `CCCc1cc(=O)oc2c3c(c4c(c12)OC(C)(C)C=C4)O[C@H](CCl)C[C@@H]3O` (relative stereo) [Metabolite M3-2, cis-12-hydroxy F18], in the data set with human liver cytosol, the “F18 metabolite detected in HLcy with NADH” value is “+” and the “F18 metabolite detected in HLcy with NADPH” value is “+”. Besides, the “F18 metabolite detected in MLM” value with monkey liver microsomes is “+”. Also, the “F18 metabolite detected in RLM” value in the data set on rat liver microsomes is reported as “+”. Besides, the “Metabolite detected in incubation with recombinant FMO5” value at recombinant FMO5 is reported as “detected”. Further, at recombinant FMO3, the “Metabolite detected in incubation with recombinant FMO3” value is recorded as “detected”. For the same compound, in the data set on dog liver microsomes, the “F18 metabolite detected in DLM” value is on record as “+”.

These data come from publication PMC5515859, “Metabolism of F18, a Derivative of Calanolide A, in Human Liver Microsomes and Cytosol” (Frontiers in Pharmacology, 2017).
